According to US20070218016A1, “Use of Aroma Substance Mixtures as Agents Against Bad Breath” (SYMRISE GMBH & CO. KG, priority 2004, published 2007):

Tested on: sterile liquid medium inoculated with fresh morning saliva
Assay: In vitro test for reduction of bad breath (inoculated medium smelled by a panel of testers)
Assay type: cell-based
Settings: 0.05% added to inoculated samples, incubated at 37° C. for some days
Description: In Vitro Test for Reduction of Bad Breath
The test is based on the work of Goldberg and Rosenberg (Production of Oral Malodor in an in vitro System, S. Goldberg and M. Rosenberg, pp. 143-150, in: Bad Breath—A Multidisciplinary Approach, eds: D. van Steenberghe, M. Rosenberg, Leuven University Press, 1996) and was adapted for better reproducibility.
A sterile liquid medium inoculated with fresh morning saliva is incubated at 37° C. for some days and then smelled by a panel of testers.
An intensive, typical bad breath odour had formed. Non-inoculated controls have only a weak smell of the medium.
Triclosan® (5-chloro-2-(2,4-dichlorophenoxy)phenol) was added to inoculated samples in a concentration of 0.05% as a control for the tests.
By addition of in each case 0.01% of the mixtures E-1 to E-6 according to the invention (see Table 1) to inoculated samples, no smell—analogously to Triclosan®—was to be found after the incubation time. This value also corresponds to the minimum active concentration.
If 0.05% of a mixture according to the invention is added to the inoculated medium only one hour before the sensory evaluation, an unpleasant mixed smell of bad breath and a weak note of the mixture according to the invention is to be observed.

Oc1cc(Cl)ccc1Oc1ccc(Cl)cc1Cl [Triclosan, 5-chloro-2-(2,4-dichlorophenoxy)phenol]
smell after the incubation: same weak smell of the medium as the non-inoculated samples
